This note sets out measurements from patent US20110009435A1, “HETERO BICYCLIC CARBOXAMIDE DERIVATIVES AND THEIR PHARMACEUTICAL USE AND COMPOSITIONS” (Pfizer, Inc., priority 2007, published 2011).

One assay deals with T1, Human recombinant MMP-13 (Homo sapiens, UniProt P45452).
T1 construct: made in house; host or cells: baculovirus expression (insect cells)
The experiment in a line: In vitro MMP inhibition assay, MMP-13 (fluorogenic peptide substrate cleavage, Ki). The format is biochemical. Conditions: human MMP-13, full length (FL); read-out: hMMP Ki 13/FL. How it is done:
(§1) Matrix Metalloproteinase inhibitor compounds were analyzed in in vitro MMP Inhibition assays to determine their ability to inhibit the MMP cleavage of peptide substrates. Inhibition constants (Ki) were calculated from the assayed compound-MMP interactions.
(§2) Human recombinant MMP-1, MMP-2, MMP-3, MMP-7, MMP-9, MMP-12, MMP-13, MMP-14 and MMP-15 were used in these assays. The enzymes are prepared following known laboratory procedures. Protocols for the preparation and use of these enzymes are available in the scientific literature. See, e.g., Enzyme Nomenclature (Academic Press, San Diego, Calif., 1992) and the citations therein. See also Frije et al., J. Biol. Chem., 26(24), 16766-73 (1994).
The MMP-13 may be obtained as a proenzyme from a full-length cDNA clone using baculovirus expression, as described by V. A. Luckow, “Insect Cell Expression Technology,” Protein Engineering: Principles and Practice, pp. 183-218 (edited by J. L. Cleland et al., Wiley-Liss, Inc., 1996). The expressed proenzyme was first purified over a heparin agarose column, and then over a chelating zinc chloride column. Further details on baculovirus expression systems may be found in, for example, Luckow et al., J. Virol., 67, 4566-79 (1993). See also O'Reilly et al, Baculovirus Expression Vectors: A Laboratory Manual (W. H. Freeman and Co., New York, N.Y., 1992). See also King et al., The Baculovirus Expression System: A Laboratory Guide (Chapman & Hall, London, England, 1992).
All full length MMPs were activated using 4-aminophenylmercuric acetate (“APMA”, Sigma Chemical, St. Louis, Mo.) or trypsin. MMP-9 also was activated using human recombinant MMP-3 following standard cloning and purification techniques.
The fluorogenic, methoxycoumarin-containing polypeptide substrate MCA-ArgProLeuGlyLeuDpaAlaArgGluArgNH2 was used as the MMP substrate in the MMP inhibition assays for human recombinant MMP-1, MMP-2, MMP-7, MMP-9, MMP-12, MMP-13, MMP-14 and MMP-15. Here, “MCA” is 7-methoxycoumarin-4-yl acetyl and “Dpa” is 3-(2,4-dinitrophenyl)-L-2,3-di-aminopropionyl group. In the absence of MMP inhibitory activity, the substrate is cleaved at the Gly-Leu peptide bond. The cleavage separates the highly fluorogenic peptide from the 2,4-dinitrophenyl quencher, resulting in an increase of fluorescent intensity.
For the human MMP-1, MMP-2, MMP-7, MMP-9, MMP-12, MMP-13, MMP-14 and MMP-15 assays, dilutions of the inhibitors (or salts thereof) were prepared in 100% dimethyl sulfoxide (DMSO). The stock solutions were diluted in Buffer A (100 mM Tris-HCl, 100 mM NaCl, 10 mM CaCl2, 0.005% polyoxyethylene 23 lauryl ether, pH 7.5) to obtain solutions with different compound concentrations, i.e., assay solutions with different concentrations of the assayed MMP inhibitory compound in 1% DMSO. The experiment controls contained the same amount of Buffer A/DMSO as the assayed sample, but contained no inhibitor.
(§3) To determine Ki, the inhibitor samples are incubated at room temperature for 1 hr in the presence of enzyme and then 4 μM of appropriate MMP substrate was added, and samples were analyzed on a Tecan SpectraFlour Plus plate reader. The excitation wavelength is 330 nm, and the emission (fluorescence) wavelength is 420 nm. In the absence of MMP inhibitory activity, the substrate is cleaved at the Gly-Leu bond resulting in an increase of relative fluorescence. Inhibition is observed as a reduced rate of increase in relative fluorescence.
The inhibitors are analyzed using a single low enzyme concentration with a single substrate concentration fixed at or below the Km. This protocol is a modification of method by Knight et al., FEBS Lett., 296(3), 263-266 (1992). Apparent inhibitory constants are determined by non-linear regression of reaction velocity as a function of inhibitor and enzyme concentration using Morrison's equation, as described by Kuzmic, Anal. Biochem. 286, 45-50 (2000). […]

Assay [1] has as its target T2, catalytic domain of human recombinant MMP-3 (Homo sapiens, UniProt P08254).
T2 construct: made in house
The experiment in a line: In vitro MMP inhibition assay, MMP-3 catalytic domain (fluorogenic peptide substrate cleavage, Ki). The format is biochemical. Conditions: human MMP-3, catalytic domain (CD); read-out: hMMP Ki 03/CD. How it is done:
as §1, §2
The catalytic domain MMP-3 cDNA may be used to express the catalytic domain enzyme in E. coli inclusion bodies. Then the enzyme is solubilized in urea, purified on a preparative […] reverse phase HPLC column, and refolded in the presence of zinc acetate and purified for use.
The fluorogenic, methoxycoumarin-containing polypeptide substrate Mca-Arg-Pro-Lys-Pro-Val-Glu-Nva-Trp-Arg-Lys(Dnp)-NH2 (Bachem catalog number M-2110) was used as the MMP substrate in the MMP inhibition assays for catalytic domain of human recombinant MMP-3 (which refers to the catalytic domain of stromelysin). Here, “MCA” is 7-methoxycoumarin-4-yl acetyl and “Dpa” is 3-(2,4-dinitrophenyl)-L-2,3-di-aminopropionyl group. In the absence of MMP inhibitory activity, the substrate is cleaved at the Gly-Leu peptide bond. The cleavage separates the highly fluorogenic peptide from the 2,4-dinitrophenyl quencher, resulting in an increase of fluorescent intensity.
For the human MMP-3 assay, dilutions of the inhibitors (or salts thereof) were prepared in 100% DMSO. The stock solutions were diluted in Buffer B (50 mM N-morpholinoethane sulfonate (“MES”), 100 mM NaCl, 10 mM CaCl2, 0.005% polyoxyethylene 23 lauryl ether, pH 6.0)) to obtain solutions with different compound concentrations, i.e., assay solutions with different concentrations of the assayed MMP inhibitory compound in 1% DMSO. The experiment controls contained the same amount of Buffer B/DMSO as the assayed sample, but contained no inhibitor.
as §3
The inhibitors are analyzed using a single low enzyme concentration with a single substrate concentration fixed at or below the Km. This protocol is a modification of method by Knight et al., FEBS Lett., 296(3), 263-266 (1992). Apparent inhibitory constants are determined by non-linear regression of reaction velocity as a function of inhibitor and enzyme concentration using Morrison's equation, as described by Kuzmic, Anal. Biochem. 286, 45-50 (2000). Modifications were made in the non-linear regression method to allow a common control reaction rate and effective enzyme concentration to be shared between all dose-response relationships on a given assay plate. Since the substrate concentration was chosen to be at or below the Km, the apparent Ki's from this analysis were reported as Ki's without correction for the influence of substrate.

T2 sequence (P08254 100-272 limits assumed): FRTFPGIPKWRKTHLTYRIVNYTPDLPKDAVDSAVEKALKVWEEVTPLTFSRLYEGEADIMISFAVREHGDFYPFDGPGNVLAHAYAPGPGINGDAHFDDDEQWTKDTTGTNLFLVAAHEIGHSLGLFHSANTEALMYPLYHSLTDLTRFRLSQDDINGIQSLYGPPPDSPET

For the molecule `COc1cccc(CNC(=O)c2nc3scc(COC[C@H]4CC[C@H](NS(C)(=O)=O)CC4)c3c(=O)[nH]2)c1` [Example 16, N-(3-Methoxybenzyl)-5-[({trans-4-[(methylsulfonyl)amino]cyclohexyl}methoxy)methyl]-4-oxo-3,4-dihydrothieno[2,3-d]pyrimidine-2-carboxamide], the Ki at Human recombinant MMP-13 was 0.41 nM; in assay [1], 533 nM.

As to `COc1cccc(CNC(=O)c2nc3scc(COC[C@H]4CC[C@H](NC(C)=O)CC4)c3c(=O)[nH]2)c1` [Example 17, 5-({[trans-4-(Acetylamino)cyclohexyl]methoxy}methyl)-N-(3-methoxybenzyl)-4-oxo-3,4-dihydrothieno[2,3-d]pyrimidine-2-carboxamide], the Ki on Human recombinant MMP-13 was found to be 1.62 nM; in assay [1], 656 nM.

For `COc1cccc(CNC(=O)c2nc3scc(COC[C@H]4CC[C@H](NC(=O)CO)CC4)c3c(=O)[nH]2)c1` [Example 21, N-(3-Methoxybenzyl)-5-((((trans-1,4)-4-(2-hydroxyacetamido)cyclohexyl)methoxy)methyl)-4-oxo-3,4-dihydrothieno[2,3-d]pyrimidine-2-carboxamide], the Ki on Human recombinant MMP-13 is 1.25 nM; in assay [1] it was 672 nM.

In the case of `COc1cc(CNC(=O)c2nc3scc(COC[C@H]4CC[C@H](NC(=O)CO)CC4)c3c(=O)[nH]2)ccc1F` [Example 23, N-(4-Fluoro-3-methoxybenzyl)-5-((((trans-1,4)-4-(2-hydroxyacetamido)cyclohexyl)methoxy)methyl)-4-oxo-3,4-dihydrothieno[2,3-d]pyrimidine-2-carboxamide], the values for the Ki (on Human recombinant MMP-13; in assay [1]) were 0.582 nM and 453 nM, respectively.

On to `COc1cccc(CNC(=O)c2nc3scc(COC[C@H]4CC[C@H](CNS(C)(=O)=O)CC4)c3c(=O)[nH]2)c1` [Example 25, N-(3-methoxybenzyl)-5-[({trans-4-[(methylsulfonyl)aminomethyl]cyclohexyl}methoxy)methyl]-4-oxo-3,4-dihydrothieno[2,3-d]pyrimidine-2-carboxamide], for which the Ki at Human recombinant MMP-13 worked out at 0.566 nM; in assay [1], 512 nM.

As for `COc1cccc(CNC(=O)c2nc3scc(COCCC4CCN(S(C)(=O)=O)CC4)c3c(=O)[nH]2)c1` [Example 27, N-(3-methoxybenzyl)-5-({2-[1-(methylsulfonyl)piperidin-4-yl]ethoxy}methyl)-4-oxo-3,4-dihydrothieno[2,3-d]pyrimidine-2-carboxamide], the figures for the Ki (on Human recombinant MMP-13; in assay [1]) were 1.78 nM and 779 nM, respectively.

As for `COc1cccc(CNC(=O)c2nc3scc(COCCC4CCN(C(C)=O)CC4)c3c(=O)[nH]2)c1` [Example 28, 5-([2-(1-Acetylpiperidin-4-yl)ethoxy]methyl)-N-(3-methoxybenzyl)-4-oxo-3,4-dihydrothieno[2,3-d]pyrimidine-2-carboxamide], the Ki on Human recombinant MMP-13 came to 3.13 nM; in assay [1] it was 787 nM.

For the molecule `COc1cccc(CNC(=O)c2nc3ccc(F)c(OC[C@H]4CC[C@H](CO)CC4)c3c(=O)[nH]2)c1` [Example 29, 6-fluoro-5-{[trans-4-(hydroxymethyl)cyclohexyl]methoxy}-N-(3-methoxybenzyl)-4-oxo-3,4-dihydroquinazoline-2-carboxamide], the Ki on Human recombinant MMP-13 worked out at 0.374 nM; in assay [1] it was 1600 nM.

Turning to `COc1cccc(CNC(=O)c2nc3ccc(F)c(OCCC4CCNCC4)c3c(=O)[nH]2)c1` [Example 30, 6-fluoro-N-(3-methoxybenzyl)-4-oxo-5-(2-piperidin-4-ylethoxy)-3,4-dihydroquinazoline-2-carboxamide], the Ki at Human recombinant MMP-13 was 1.91 nM; in assay [1], 9420 nM.

For the molecule `COc1cccc(CNC(=O)c2nc3ccc(F)c(OCCC4CCN(S(C)(=O)=O)CC4)c3c(=O)[nH]2)c1` [Example 31, 6-fluoro-N-(3-methoxybenzyl)-5-{2-[1-(methylsulfonyl)piperidin-4-yl]ethoxy}-4-oxo-3,4-dihydroquinazoline-2-carboxamide], the Ki at Human recombinant MMP-13 is 0.085 nM; in assay [1], 1280 nM.

Regarding `COc1cccc(CNC(=O)c2nc3ccc(F)c(OCCC4CCN(C(C)=O)CC4)c3c(=O)[nH]2)c1` [Example 32, 5-[2-(1-acetylpiperidin-4-yl)ethoxy]-6-fluoro-N-(3-methoxybenzyl)-4-oxo-3,4-dihydroquinazoline-2-carboxamide], the Ki is 0.184 nM at Human recombinant MMP-13 and 1950 nM in assay [1].

For `COc1cccc(CNC(=O)c2nc3ccc(F)c(OCCC4CCN(CCO)CC4)c3c(=O)[nH]2)c1` [Example 35, 6-fluoro-5-{2-[1-(2-hydroxyethyl)piperidin-4-yl]ethoxy}-N-(3-methoxybenzyl)-4-oxo-3,4-dihydroquinazoline-2-carboxamide], the results for the Ki (at Human recombinant MMP-13; in assay [1]) were 4.15 nM and 5200 nM, respectively.
